Measurements published in ChEMBL document CHEMBL1201862, “PubChem BioAssay data set” (2004).
Active and inactive are the calls of the source.

Key:
[1] = cytotoxicity in HEK293 background cells – cell-based, dry powder, set 2, counter-screen for EBV LMP1 inhibitor project, dose response (AID 624374); type: functional
[2] = OVCAR-3 cell viability loss – plate reader, dry powder samples, PAX8 inhibitor project, dose response (AID 743044); type: functional, cell-based
[3] = inhibitors acting on PAX2 in cells – cell-based, plate reader, dry powder samples, selectivity assay for PAX8 inhibitor project, dose response (AID 743048); type: functional;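 also: HEK293 cells carrying a WT1 promoter luciferase reporter driven by expressed Pax2; potency is for inhibition of Pax2 driven reporter signal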
[4] = COV362 cell viability loss – plate reader, dry powder, SA12, cytotoxicity control for PAX8 inhibitor project, dose response (AID 743144); type: functional, cell-based
Paired box protein Pax-8 = Paired box protein Pax-8 (Homo sapiens, UniProt Q06710); assay: PAX8 transcriptional activity inhibition in RMG-I – RMG-I cells, luciferase, cherry-pick, dose response (AID 687027); type: functional, cell-based;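 also: luciferase reporter driven by Pax8 target thyroperoxidase promoter measured by SteadyGlo luminescence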
Chain of Paired box protein Pax-8 (Q06710 whole entry): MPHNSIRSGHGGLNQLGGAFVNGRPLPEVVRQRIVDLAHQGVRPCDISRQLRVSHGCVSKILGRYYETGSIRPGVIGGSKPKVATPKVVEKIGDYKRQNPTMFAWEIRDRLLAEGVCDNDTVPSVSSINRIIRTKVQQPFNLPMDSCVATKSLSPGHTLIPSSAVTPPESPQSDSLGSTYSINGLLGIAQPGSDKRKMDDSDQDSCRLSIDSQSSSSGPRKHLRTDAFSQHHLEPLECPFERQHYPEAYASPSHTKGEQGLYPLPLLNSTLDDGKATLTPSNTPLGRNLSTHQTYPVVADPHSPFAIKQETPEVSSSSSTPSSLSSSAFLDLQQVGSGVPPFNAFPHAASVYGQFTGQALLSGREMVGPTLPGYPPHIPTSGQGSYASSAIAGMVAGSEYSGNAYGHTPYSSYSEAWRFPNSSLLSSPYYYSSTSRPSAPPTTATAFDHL

[5] = COV434 cell viability loss – plate reader, dry powder, SA7, cytotoxicity control for PAX8 inhibitor project, dose response (AID 743145); type: functional, cell-based
[6] = PAX5 cellular inhibition readout – cell-based, plate reader, dry powder samples, selectivity assay for PAX8 inhibitor project, dose response (AID 743047); type: functional;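 also: HEK293 cells carrying a Pax5 driven CD19 promoter luciferase reporter; potency of inhibitors that lower reporter luminescence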
[7] = PAX8-dependent cell viability loss – plate reader, dry powder, dose response (AID 743049); type: functional, cell-based
[8] = OV-90 cell viability loss – plate reader, dry powder, SA8, PAX8 inhibitor project, dose response (AID 743149); type: functional, cell-based
[9] = Dd2 parasite growth inhibition in erythrocytes – SYBR Green, dry powder samples, set 4, dose response (AID 1159572); type: functional, cell-based
[10] = antimalarial activity against Dd2 parasites – SYBR Green fluorescence, erythrocytes, dry powder, set 2, dose response (AID 1159574); type: functional, cell-based
[11] = viability inhibitors of stage V gametocytes – luminescence, dose response (AID 1117278); type: functional, cell-based;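 also: gametocytes exposed to compound for 24 hours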
[12] = viability loss in human Jurkat cells – cell-based, luminescence, cytotoxicity control for P. falciparum gametocyte viability project, dose response (AID 1117277); type: functional;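 also: potency reflects loss of cellular ATP meaning fewer viable cells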
[13] = glucagon-like peptide-1 release potency in STC-1, concentration-response, half-maximal inhibitory concentration in the STC-1 line (AID 1117345); type: functional, cell-based
[14] = Potency on glucagon-like peptide 1 release, dose-response in NCI-H716 cell line, half maximal inhibitory concentration (AID 1117344); type: functional, cell-based
Streptokinase A = target: T1, Streptokinase A (Streptococcus pyogenes serotype M1, UniProt P10520); assay: viability-normalized secreted streptokinase activity reduction – plasminogen activation absorbance, OD405, dose response (AID 1914); type: functional, Streptococcus pyogenes M1 GAS;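 also: secreted streptokinase activity via plasminogen activation per viability signal from cell pellet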
T1 sequence (P10520 whole entry): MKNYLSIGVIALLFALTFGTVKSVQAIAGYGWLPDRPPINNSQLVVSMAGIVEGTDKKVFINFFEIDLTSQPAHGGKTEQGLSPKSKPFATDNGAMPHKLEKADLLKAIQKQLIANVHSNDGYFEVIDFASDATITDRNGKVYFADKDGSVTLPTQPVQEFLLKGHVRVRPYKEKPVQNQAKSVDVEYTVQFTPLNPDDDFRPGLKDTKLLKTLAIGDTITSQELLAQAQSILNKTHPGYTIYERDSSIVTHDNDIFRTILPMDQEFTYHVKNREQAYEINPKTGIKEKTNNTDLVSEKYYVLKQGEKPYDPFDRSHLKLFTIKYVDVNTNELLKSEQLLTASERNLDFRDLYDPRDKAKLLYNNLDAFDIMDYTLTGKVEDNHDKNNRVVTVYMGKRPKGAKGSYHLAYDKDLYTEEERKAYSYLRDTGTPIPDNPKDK

Streptococcus = assay: GAS UMAA2166 growth inhibition – luminescence, BacTiterGlo, counter-screen for streptokinase expression inhibitor project, dose response (AID 1915); type: functional, organism-based;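 also: potency for reduction of bacterial viability or growth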
[15] = IC50 of Artemis nuclease activity blockers – biochemical, fluorescence intensity, dose response (AID 720701); type: functional;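 also: Artemis endonuclease enzyme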
[16] = target: Heat shock protein HSP 90-alpha (Homo sapiens, UniProt P07900); type: functional, organism-based
[17] = system: Streptococcus sp. 'group A'; assay: Streptococcus pyogenes SK(-)GAS viability under kanamycin – luminescence, BacTiterGlo, confirmation, counter-screen for streptokinase expression inhibitor project, dose response (AID 1900); type: functional, organism-based
[18] = target: T2, Heat shock factor protein 1 (Mus musculus, UniProt P38532); assay: enhancement of HSF1-driven luciferase signal – cell-based, NIH3T3, luminescence, dose retest, confirmation (AID 435004); type: functional;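 also: stress induced by proteasome inhibitor MG132 added 30 min after compound; luciferase reporter driven by HSF1 response element in NIH3T3 cells; actives raise luminescence as potentiators of the MG132 stress response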
T2 sequence (P38532 whole entry): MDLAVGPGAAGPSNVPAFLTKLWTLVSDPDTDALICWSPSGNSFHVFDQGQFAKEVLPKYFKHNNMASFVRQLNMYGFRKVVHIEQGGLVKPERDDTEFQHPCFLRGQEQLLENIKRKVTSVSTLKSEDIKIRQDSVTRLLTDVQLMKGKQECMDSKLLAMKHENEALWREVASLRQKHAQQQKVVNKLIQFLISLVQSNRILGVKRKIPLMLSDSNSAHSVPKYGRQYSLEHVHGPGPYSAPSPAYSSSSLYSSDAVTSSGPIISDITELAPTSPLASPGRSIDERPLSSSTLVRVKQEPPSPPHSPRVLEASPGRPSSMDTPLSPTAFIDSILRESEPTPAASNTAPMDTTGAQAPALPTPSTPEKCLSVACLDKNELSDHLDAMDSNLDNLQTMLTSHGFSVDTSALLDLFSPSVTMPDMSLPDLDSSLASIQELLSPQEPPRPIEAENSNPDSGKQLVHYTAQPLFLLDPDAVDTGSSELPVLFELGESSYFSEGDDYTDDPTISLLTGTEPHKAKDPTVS

Ephrin type-A receptor 4 = Ephrin type-A receptor 4 (Mus musculus, UniProt Q03137); assay: EphA4 ligand-binding antagonists – biochemical, colorimetric, mouse EphA4, primary screen (AID 689); type: functional
Chain of Ephrin type-A receptor 4 (Q03137 whole entry): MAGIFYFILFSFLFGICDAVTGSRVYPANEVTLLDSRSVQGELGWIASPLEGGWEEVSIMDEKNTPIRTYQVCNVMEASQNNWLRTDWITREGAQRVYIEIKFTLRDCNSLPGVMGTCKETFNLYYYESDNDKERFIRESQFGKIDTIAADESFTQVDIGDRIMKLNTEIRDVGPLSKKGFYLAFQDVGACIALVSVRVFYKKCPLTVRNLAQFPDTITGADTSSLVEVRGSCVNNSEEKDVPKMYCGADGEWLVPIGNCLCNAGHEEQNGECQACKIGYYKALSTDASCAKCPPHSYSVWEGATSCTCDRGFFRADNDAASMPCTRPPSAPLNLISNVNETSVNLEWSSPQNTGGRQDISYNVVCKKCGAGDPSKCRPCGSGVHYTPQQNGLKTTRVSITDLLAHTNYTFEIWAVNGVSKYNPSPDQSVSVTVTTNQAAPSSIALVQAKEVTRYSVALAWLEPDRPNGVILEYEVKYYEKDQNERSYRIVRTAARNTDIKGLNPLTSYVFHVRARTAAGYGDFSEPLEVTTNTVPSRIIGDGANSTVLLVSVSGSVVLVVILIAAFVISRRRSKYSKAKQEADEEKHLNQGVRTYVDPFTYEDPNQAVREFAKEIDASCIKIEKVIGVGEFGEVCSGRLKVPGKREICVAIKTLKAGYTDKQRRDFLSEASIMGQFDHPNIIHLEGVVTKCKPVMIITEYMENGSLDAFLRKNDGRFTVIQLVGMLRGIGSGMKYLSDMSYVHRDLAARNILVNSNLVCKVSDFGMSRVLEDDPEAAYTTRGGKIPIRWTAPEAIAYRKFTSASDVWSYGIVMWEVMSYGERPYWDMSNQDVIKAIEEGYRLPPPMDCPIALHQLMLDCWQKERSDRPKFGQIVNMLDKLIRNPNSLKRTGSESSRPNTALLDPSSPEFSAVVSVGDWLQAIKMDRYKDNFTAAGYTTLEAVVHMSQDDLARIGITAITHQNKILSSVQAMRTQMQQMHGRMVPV

[19] = luciferase reporter signal suppression in cells – H4 neuroglioma cells, luminescence, dose response (AID 1990); type: functional, cell-based
[20] = Luminescence Cell-Based Dose Response HTS to Identify Inhibitors of 5'UTR Stem-Loop Driven Prion Protein mRNA Translation in H4 Neuroglioblastoma Cells. [Related pubchem assays: 1827 (Project Summary), 1813 (Primary HTS)]; type: functional
Vero = assay: viability of Vero cells under compound – cytotoxicity control for flavivirus capping enzyme inhibitors (AID 588742); type: functional; settings: Chlorocebus sabaeus
[21] = alpha-synuclein stem-loop luciferase translation blockers – H4 neuroglioma cells, luminescence, confirmation (AID 1988); type: functional, cell-based
[22] = Dd2 parasite growth inhibition in erythrocytes – SYBR Green, dry powder samples, set 9, dose response (AID 1159568); type: functional, cell-based

## C[C@@H]1CN([C@@H](C)CO)S(=O)(=O)c2ccc(C#Cc3ccncc3)cc2O[C@H]1CN(C)C(=O)Nc1ccc2c(c1)OCO2
[1]
  AbsAC35: 39.06 µM
[2]
  AC50: 19.1 µM (active)
[3]
  AC50: 22.7 µM (active)
[4]
  AC50: 0.0878 nM (active)
Paired box protein Pax-8
  AC50: 2.44 µM (active)
[5]
  AC50: 0.179 µM (active)
[6]
  AC50: 31.1 µM (active)
[7]
  AC50: 13 µM (active)
[8]
  AC50: 8.27 µM (active)

## COc1ccc(NC(=O)N2CCC3(CC2)CN(C(C)=O)[C@@H](CO)c2[nH]c4cc(OC)ccc4c23)cc1
[9]
  AC50: 1.73 µM (active)

## COc1cccc(C#Cc2ccc([C@H]3[C@H](CO)N4C(=O)CN(C(=O)Cc5ccccc5)C[C@@H]34)cc2)c1
[10]
  AC50: 10.5 µM (active)

## c1ccc(CNC2=NCCS2)cc1
[11]
  IC50: > 109 µM (inactive)
[12]
  IC50: > 83.2 µM (inactive)

## Cc1cc(N)c2cc(NC(=O)Nc3ccc4nc(C)cc(N)c4c3)ccc2n1
[13]
  IC50: > 40 µM (inactive)
[14]
  IC50: 34.2 µM (inactive)

## O=C(/C=C/c1ccccc1)c1cc(Br)ccc(=O)c1O
Streptokinase A
  EC50: > 150 µM (not active)
Streptococcus
  EC50: 7.42 µM (active)
[15]
  IC50: 19.1 µM (active)
[16]
  AC50: 3.01 µM (active)
[17]
  EC50: 1.95 µM (active)
[18]
  EC50: 15.9 µM (active)
Ephrin type-A receptor 4
  IC50: 17.3 µM (active)
[19]
  EC50: 11.6 µM (active)
[20]
  EC50: > 120 µM (not active)
Vero
  CC50: 5.71 µM (active)
[21]
  EC50: > 120 µM (not active)

## Cc1noc(C)c1S(=O)(=O)N(C)C[C@@H]1OCCCC[C@@H](C)Oc2ccc(N(C)C)cc2C(=O)N([C@@H](C)CO)C[C@H]1C
[22]
  AC50: 10.6 µM (active)
